Data published in US5605929A, “Methods and compositions for inhibiting 5α-reductase activity” (priority 1995, dated 1997).

How the values were obtained:
[1] = target: T1, human 5α-reductase isozyme type 1 (Homo sapiens, UniProt P18405); experiment: [3H]4-MA binding, human type 1 isozyme expressed in Rat-1A cells; details: read-out: % Inhibition of [^3 H]4-MA binding
T1 construct: expressed in transfected cells; host or cells: Rat-1A cells infected with pMV7 retrovirus; microsomes of these cells
T1 sequence (P18405 1-259): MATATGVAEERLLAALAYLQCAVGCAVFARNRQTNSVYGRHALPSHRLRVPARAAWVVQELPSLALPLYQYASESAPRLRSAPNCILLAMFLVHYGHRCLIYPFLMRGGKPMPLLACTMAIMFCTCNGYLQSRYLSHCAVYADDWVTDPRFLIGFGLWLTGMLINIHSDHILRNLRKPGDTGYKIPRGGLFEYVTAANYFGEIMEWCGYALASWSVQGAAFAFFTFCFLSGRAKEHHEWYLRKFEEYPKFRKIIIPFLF
Excerpt: (§1) The cDNAs for the human type 1 and 2 5α-reductases were isolated from human prostate λZAP II™ cDNA libraries using the published sequence of the 5α-reductases, PCR™ and standard library screening techniques (Sambrook et al., 1989). The type 1 and 2 cDNAs correspond to nucleotides 31-870 and 28-829, respectively, of the published sequences for these 5α-reductases (Anderson and Russell, 1990; Anderson et al., 1991). The type 1 and 2 cDNAs were subcloned into the retroviral expression vector pMV7 (Kirschmeier et al., 1988) and high titer stocks of virus containing the type 1 and 2 cDNAs were generated using the packaging cells BOSC 23 293 (Kirschmeier et al., 1988). Rat.-1A cells (Pear et al., 1993) were infected with virus (Topp, 1981) and cells containing integrated retrovirus were selected for G418-SO4 resistance, (Brown and Scott, 1987).
(§2) Microsomes were prepared as described previously (Liang and Liao, 1992) from the liver of adult Sprague-Dawley female rats or Rat-1A cells expressing a specific type of human 5α-reductase. […] The data presented was based on the rate of reaction.
(§3) [^3 H]4-MA binding assay were described in detail previously (Liang and Liao, 1992; Liang et al., 1983). […] The reaction was started by the addition of 25 μl of microsomes (25 μg protein). After 30-60 min incubation at 0° C., the [^3 H]4-MA bound to microsomes was collected on a Whatman GF/F glass fiber, washed and radioactivity determined (Liang and Liao, 1992).

[2] = target: T2, human 5α-reductase isozyme type 2 (Homo sapiens, UniProt P31213); experiment: 4-[14C]testosterone reduction, human type 2 isozyme; assay type: biochemical
T2 construct: expressed in transfected cells; host or cells: Rat-1A cells infected with pMV7 retrovirus; microsomes of these cells
T2 sequence (P31213 1-254): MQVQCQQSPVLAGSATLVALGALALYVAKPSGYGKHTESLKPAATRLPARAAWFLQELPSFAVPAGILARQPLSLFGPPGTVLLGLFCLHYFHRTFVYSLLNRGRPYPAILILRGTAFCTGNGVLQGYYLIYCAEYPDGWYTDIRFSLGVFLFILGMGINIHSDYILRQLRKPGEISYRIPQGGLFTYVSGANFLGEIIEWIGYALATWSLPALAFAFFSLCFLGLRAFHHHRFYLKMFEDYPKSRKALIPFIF
Excerpt: as §1, §2
(§4) The reaction was started by the addition of 25 μl of microsomes (25 μg protein). The mixture was incubated at 37° for 30-60 min and stopped by addition of 0.5 ml of ethyl acetate and mixing for 1 min. The organic solvent extract was removed under vacuum.

[3] = target: T1, human 5α-reductase isozyme type 1; experiment: 4-[14C]testosterone reduction, human type 1 isozyme; assay type: biochemical
Excerpt: as §1, §2, §4

[4] = target: T2, human 5α-reductase isozyme type 2; experiment: [3H]4-MA binding, human type 2 isozyme expressed in Rat-1A cells; details: read-out: % Inhibition of [^3 H]4-MA binding
Excerpt: as §1, §2, §3

[5] = system: forehead sebum production; experiment: Forehead sebum production (L/R ratio), human male; assay type: in vivo
Method: A volunteer was used to test and analyze sebum production from the forehead region. The forehead was washed thoroughly by soap twice and cleaned by 70% isopropyl alcohol twice. Sebum production was measured 30 to 60 minutes later by a sebum meter (Courage/Khazaka Electronic GmbH, Germany). The sebum meter tape probe (7 mm×8 mm) covered 56 mm^2 area in each measurement. Ten measurements were made within the 4 cm square area (16 cm^2) located at the middle of the left or right side forehead between the eyebrow and the hair line.
The sebum meter detected the difference in the transparency of the tape before and after the tape was placed on the forehead for 30 seconds and expressed the difference in an arbitrary number (S-value) between 0 to 300 (or higher). S-values of sebum accumulated on the foreheads of men are usually 200 to 300.

[6] = system: ventral prostate and preputial organ; details: 5 mg ip daily, 14 days
Excerpt: Male Sprague-Dawley rats, 60±5 g body weight, were used. Each group had 6 rats, and all were castrated.

5α-reductase [7] = experiment: Catechin gallates in rat liver microsomes or cells expressing type 1 or type 2 5α-reductase; assay type: biochemical; details: 40 μM
[8] = target: T3, 5α-Reductase of Rat Liver Microsomes (Rattus norvegicus, UniProt P24008); experiment: [3H]4-MA binding assay, rat liver microsomes (tea catechins); details: read-out: % Inhibition of [^3 H]4-MA binding
T3 sequence (P24008 1-259): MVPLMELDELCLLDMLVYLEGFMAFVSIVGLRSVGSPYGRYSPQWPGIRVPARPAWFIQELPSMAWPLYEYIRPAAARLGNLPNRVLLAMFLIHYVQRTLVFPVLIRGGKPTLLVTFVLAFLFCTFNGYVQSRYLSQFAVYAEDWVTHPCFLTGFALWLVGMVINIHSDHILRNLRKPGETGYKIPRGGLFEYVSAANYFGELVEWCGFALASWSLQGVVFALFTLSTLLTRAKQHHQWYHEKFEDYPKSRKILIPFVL
Method: Microsomes were prepared as described previously (Liang and Liao, 1992) from the liver of adult Sprague-Dawley female rats or Rat-1A cells expressing a specific type of human 5α-reductase. Each study was carried out in duplicate or triplicate which were usually within 10% of each other. Several studies were preformed to assure that the results shown are representative. The data presented was based on the rate of reaction.
as §3

5α-reductase [9] = details: cited from earlier work
[10] = Table 10, 1 μM, read-out: % Inhibition of 5α-reduction
[11] = Table 10, 3 μM, read-out: % Inhibition of 5α-reduction
[12] = Table 10, 10 μM, read-out: % Inhibition of 5α-reduction
[13] = Table 10, 30 μM, read-out: % Inhibition of 5α-reduction

SMILES: Oc1cc(O)c2c(c1)O[C@H](c1ccc(O)c(O)c1)[C@H](O)C2 [EC, (-)Epicatechin]
- inhibition at 1 µM ([1]; Table 9, 1 μM): < 10%
- inhibition at 3 µM ([1]; Table 9, 3 μM): 13%
- inhibition at 10 µM ([1]; Table 9, 10 μM): < 10%
- inhibition at 30 µM ([1]; Table 9, 30 μM): < 10%
- inhibition at 100 µM ([1]; Table 9, 100 μM): 18%
- inhibition at 1 µM [2, 10]: < 10%
- inhibition at 3 µM [2, 11]: < 10%
- inhibition at 10 µM [2, 12]: < 10%
- inhibition at 30 µM [2, 13]: < 10%
- inhibition at 100 µM ([2]; Table 10, 100 μM, read-out: % Inhibition of 5α-reduction): < 10%
- activity on type 2 isozyme ([2]; enzymatic assay, concentrations below 30 μM for ECG/EGCG): not active
- inhibition at 1 µM [3, 10]: < 10%
- inhibition at 3 µM [3, 11]: 13%
- inhibition at 10 µM [3, 12]: < 10%
- inhibition at 30 µM [3, 13]: < 10%
- activity on type 1 isozyme ([3]; enzymatic assay): not active
- inhibition at 1 µM ([4]; Table 9, 1 μM): < 10%
- inhibition at 3 µM ([4]; Table 9, 3 μM): < 10%
- inhibition at 10 µM ([4]; Table 9, 10 μM): < 10%
- inhibition at 30 µM ([4]; Table 9, 30 μM): < 10%
- inhibition at 100 µM ([4]; Table 9, 100 μM): < 10%
- L/R sebum ratio at end of treatment ([5]; 20 mg twice a day, 6 days): 1.02±0.1
- L/R sebum ratio recovered after treatment stopped ([5]; 10 days after stop): 1.21±0.01
- effect on body weight increase [6]: not EC or γ-LA
- effect on ventral prostate and preputial organ weights [6]: not EC
- inhibition (5α-reductase [7]): less than 25%
- inhibition at 5 µM ([8]; Table 8, 5 μM): < 10%
- inhibition at 10 µM ([8]; Table 8, 10 μM): < 10%
- inhibition at 20 µM ([8]; Table 8, 20 μM): < 10%
- inhibition at 40 µM ([8]; Table 8, 40 μM): < 10%
- inhibition at 200 µM ([8]; Table 8, 200 μM): < 10%

SMILES: C[C@]12CC[C@H]3[C@@H](CCC4=CC(=O)CC[C@@]43C)[C@@H]1CC[C@@H]2C(=O)O [4-androstane-3-one-17β-carboxylic acid]
- 5α-reductase inhibition (5α-reductase [9]): shown to inhibit 5α-reductase

SMILES: C[C@]12CC[C@H]3[C@@H](CCC4C(=[N+]=[N-])C(=O)CC[C@@]43C)[C@@H]1CC[C@@H]2CCCO (stereo partly drawn) [4-diazo-21-hydroxymethyl-pregnane-3-one]
- 5α-reductase inhibition (5α-reductase [9]): shown to inhibit 5α-reductase
